Results from patent publication US20250177548A1, “FUSOGENIC PEPTIDE COMPOSITIONS AND METHODS OF CARGO DELIVERY” (CLEMSON UNIVERSITY, priority 2022, published 2025).
“And” between values parts separate entries of the source, which are not always exact repeats. Equal values may be shown once. Non-standard residues stand in square brackets, D forms with d. No end group written: not given here. pG = not defined here

Experiments:
[1] = dynamic light scattering, size and zeta potential of peptide/siRNA complexes; type: physicochemical; conditions: LHRH-DIV3W peptide/siRNA complexes
Protocol: Dynamic Light Scattering and Transmission Electron Microscopy. DIV3 (X)-siNT complexes were prepared at 2 mg/mL in RNase-free water. Hydrodynamic size and surface charge of the peptide/siRNA complexes were determined using a Nano ZS Zetasizer (Malvern Pananalytical, Malvern, UK). All data were recorded using Malvern's Zetasizer software.
To determine nanoparticle size and zeta potential, peptides resuspended in RNase-free water (10 μM) were thawed and kept on ice prior to complexation with 10 μM of siNT in RNase-free water and incubated for 20 minutes at room temperature to form DIV3W-siNT and LHRH-DIV3W-siNT complexes. Peptide complexes were prepared at 2 mg/mL in RNase-free water. Hydrodynamic size and surface charge analysis was conducted using a Malvern Nano ZS Zetasizer (Malvern Panalytical, Malvern, UK). All data was analyzed using Malvern's Zetasizer software.

[2] = system: OVCAR3 cells; test: cellular uptake of labeled siRNA by flow cytometry; type: cell-based; design: uptake efficiency higher than DIV3W uptake: concentration or dose not given beside the values; conditions: for uptake efficiency, tandem vs LHRH peptide: FIG. 10E, 4 hr, cell line not stated
Protocol: (§1) Cellular Uptake. OVCAR3 and CAOV3 cells were prepared at 50,000 cells per well in a 24-well plate. […] Post-incubation, media was aspirated and cells were washed with 1× PBS. To counterstain the nuclei, SuperSignal NucBlue Hoechst stain (Thermo Fisher, Waltham, MA) was added to the cells for 30 minutes, followed by an additional 1×PBS wash. Subsequent imaging was performed using an EVOS FL Microscope (Thermo Fisher) at 10× magnification. For flow cytometric analysis, cells were detached, resuspended in 1× PBS, and analyzed using an Attune NXT Acoustic flow cytometer (Invitrogen, Carlsbad, CA) with the blue laser line and BL2 (574/26 nm) channel.
(§2) Cellular Uptake and Targeting Specificity. Observation of cell uptake was performed by seeding OVCAR3 and CAOV3 cells at a density of 50,000 cells per well in a 24-well plate. LHRH and LHRH-DIV3W peptides were complexed with […] as previously described and delivered to cells at 20:1 to 80:1 N:P ratios. Each cell line was incubated with tandem peptide complexes for both 4- and 24-hour treatment periods. Following incubation, cell media was removed, and cells were washed with 1× PBS prior to the addition of 500 μL of 1×PBS and SuperSignal NucBlue Hoescht 33342 nuclear stain (Thermo Fisher, Waltham, MA). Cellular imaging was completed using an EVOS FL Microscope (Thermo Fisher) at 10×, 20×, and 40× magnification. Flow cytometry was completed after cell imaging and cells were trypsinized, resuspended in 1×PBS, and analyzed with an Attune NXT Acoustic Flow Cytometer (Invitrogen) with the red laser line and RL2 […] channel.

[3] = system: CAOV3 cells; test: cellular uptake of labeled siRNA by flow cytometry; type: cell-based; conditions: for uptake efficiency: 80:1
Protocol: as §1, §2

[4] = system: CSNK2A1 mRNA; test: qPCR of CSNK2A1 mRNA in OVCAR3 cells; type: cell-based
Protocol: qRT-PCR. Cells were seeded at 50,000 cells per well and treated with siRNA targeting CSNK2A1 (siCSNK2A1 #s3638, Thermo Fisher Scientific) at increasing N:P ratios and incubated for a total of 48 hours in McCoys 5A/DMEM-10% FBS. Treated cells were washed with 1×PBS at 24 hours and fresh media was added. RNAisolation was completed using a Qiagen Mini-RNeasy Kit (Qiagen, Hilden, Germany) according to the manufacturer's protocol. RNA isolation quality and quantity were measured through the Gen5 protocol using a Take3 plate (BioTek). RNA was reverse-transcribed using the QuantiTect Reverse Transcription kit (Qiagen). Quantitative real-time PCR was completed with a QuantStudio 3 qPCR system (Applied Biosystems) using Applied Biosystems TaqMan FAST Master Mix (Thermo Fisher) and CSNK2A1 (ID #Hs00751002_s1) and 18S (ID #Hs99999901_s1) predesigned TaqMan probes, according to the manufacturer's protocol.
Gene and Protein Knockdown. Bioactivity of siRNAs was determined via qPCR and western blot analysis. OVCAR3 or CAOV3 cells were seeded at 50,000 cells per well as previously described and treated with siRNA targeting CSNK2A1 and siNT at N:P ratios 30:1, 40:1, 50:1, 60:1, and 70:1. LHRH-DIV3W peptide complexed with either siNT or siCSNK2A1 was incubated for a total of 48 hours in RPMI 1640/DMEM-10% FBS, with one media exchange occurring after the 24-hour timepoint. Treated cells were washed with 1×PBS at 24 hours and fresh media was added. RNA isolation was completed using a Qiagen Mini-RNeasy Kit (Qiagen, Hilden, Germany) according to the manufacturer's protocol. RNA isolation quality and quantity was measured through the Gen5 protocol using a Take3 plate (BioTek). RNA was reverse transcribed using the QuantiTect Reverse Transcription kit (Qiagen) according to the manufacturer's protocol. Quantitative real-time PCR was completed with a QuantStudio 3 qPCR system (Applied Biosystems, Waltham, MA) using Applied Biosystems TaqMan FAST Master Mix (Thermo Fisher) and CSNK2A1 (ID #Hs00751002_s1) and 18S (ID #Hs99999901_s1) predesigned TaqMan probes according to the manufacturer's protocol.

[5] = system: OVCAR3 cells
Protocol: (§3) Cells were seeded at 10,000 cells per well with complete culture media in a 96-well plate and incubated overnight to allow the cells to attach. DIV3 (X) peptides were complexed with siNT at 40:1 to 80:1 N:P molar ratios. DIV3 (X)-siNT complexes were incubated with OVCAR3 or CAOV3 cells at a final concentration of 100 nM siRNA and 10% FBS for 24 hours. Media was then aspirated, cells were washed with 1× phosphate-buffered saline (PBS), and fresh media with 10% FBS was added to each well and incubated another 24 hours.
Viability was measured using an MTS Assay performed with CellTiter 96 AQueous One Solution Cell Proliferation Assay (Promega, Madison, WI). Assay reagent was added according to the manufacturer's protocol, and cells were incubated for 4 hours. Absorbance was read using a BioTek Synergy LX (BioTek, Winooksi, VT) plate reader at 490 nm. An MTS cell viability assay was also conducted as described for OVCAR3 and CAOV3 cells treated with DIV3W-siRNA complexes.
OVCAR3 or CAOV3 cells were seeded at 10,000 cells per well with complete culture media in a transparent 96-well plate and incubated overnight to allow the cells to attach. LHRH and LHRH-DIV3W peptides were delivered to cells without siRNA cargo. After 24 hours of incubation the media was exchanged and after another 24-hour incubation at 37° C. in 5% CO2, viability was measured using an MTS Assay performed with the CellTiter 96 AQueous One Solution Assay (Promega, Madison, WI). Assay reagent was added according to the manufacturer's protocol and cells were incubated for 4 hours. Absorbance was read using a BioTek Synergy LX (BioTek, Winooksi, VT) plate reader at 490 nm.

[6] = system: CAOV3 cells
Protocol: as §3
Viability was measured using an MTS Assay performed with CellTiter 96 AQueous One Solution Cell Proliferation Assay (Promega, Madison, WI). Assay reagent was added according to the manufacturer's protocol, and cells were incubated for 4 hours. Absorbance was read using a BioTek Synergy LX (BioTek, Winooksi, VT) plate reader at 490 nm. […]
OVCAR3 or CAOV3 cells were seeded at 10,000 cells per well with complete culture media in a transparent 96-well plate and incubated overnight to allow the cells to attach. […] After 24 hours of incubation the media was exchanged and after another 24-hour incubation at 37° C. in 5% CO2, viability was measured using an MTS Assay performed with the CellTiter 96 AQueous One Solution Assay (Promega, Madison, WI). […] Absorbance was read using a BioTek Synergy LX (BioTek, Winooksi, VT) plate reader at 490 nm.

With “pGHWSY-(d) LLRPGGGGGWEADIVADIVWDIVADIVAGGG-(d) RRRRRRRRR ([pG]HWSY[dL]LRPGGGGGWEADIVADIVWDIVADIVAGGG[dR][dR][dR][dR][dR][dR][dR][dR][dR]; reading uncertain) [LHRH-DIV3W]” the “nanoparticle size (DLS)” value [1] was 154.2±15.9 nm, the polydispersity index [1] was 0.18 and the “zeta potential (positive charge)” value [1] was 33.37±2.00 mV. The “uptake efficiency, tandem vs LHRH peptide” value ([2]; 40:1) was 66.81%±4.3%, the “uptake efficiency, tandem vs LHRH peptide” value ([2]; 60:1) was 72.59%±6.87% and the “uptake efficiency, tandem vs LHRH peptide” value ([2]; 80:1) was 76.26%±14.9%. For the same substance, the “uptake efficiency higher than DIV3W uptake” value ([2]; OVCAR3) was 12%, the uptake efficiency ([2]; OVCAR3, siNT-Cy5.5, 4 hours, 80:1) was 79.58%+0.61% and 79.58%±1.05% and the uptake efficiency ([2]; OVCAR3, siNT-Cy5.5, 24 hours, 80:1) was 76.26%±15.56%. The “uptake efficiency higher than DIV3W uptake” value ([3]; CAOV3) was 11%, the uptake efficiency ([3]; CAOV3, siNT-Cy5.5, 4 hours) was 36.19%+9.67% and 36.19%±16.76% and the uptake efficiency ([3]; CAOV3, siNT-Cy5.5, 24 hours) was 63.47%+4.61% and 63.4%±4.6%. For the same substance, the “CSNK2A1 mRNA expression, % of negative control” value (from here on “CSNK2A1 mRNA expression, %”) ([4]; 50:1, vs LHRH-DIV3W-siNT) was 59.75%±12.61%, the “CSNK2A1 mRNA expression, %” value ([4]; 60:1, vs LHRH-DIV3W-siNT) was 72.17%±23.19% and the “CSNK2A1 mRNA expression, %” value ([4]; 70:1, vs LHRH-DIV3W-siNT) was 51.88%±9.87%. The “cytotoxicity of peptide alone” value [5] was “did not cause cytotoxic effects”, the viability [5] was 109.66%+0.8% and the “cytotoxicity of peptide alone” value [6] was “did not cause cytotoxic effects”.
